Data reported in patent US8871767B2, “2-arylimidazo[1,2-B]pyridazine, 2-phenylimidazo[1,2-A]pyridine, and 2-phenylimidazo[1,2-A]pyrazine derivatives” (Hengrui (USA) Ltd., priority 2010, dated 2014).
Where two headings read alike, the source gives them in different places.

Legend:
[1] = tested on: Hedgehog pathway activation on 10T1/2/Smo#3 cells (C3H10T1/2 cells transfected with human Smoothened receptor); experiment: Hedgehog pathway activation on 10T1/2/Smo#3 cells measured by ALP activity; format: cell-based
Procedure, shortened: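 C3H10T1/2 cells stably expressing human Smoothened were activated with hShh-conditioned medium (10-20%) or 500 nM SAG, with test compounds present. Pathway block read as inhibited ALP activity (4-methylumbelliferyl phosphate fluorescence); viability checked by CellTiter-Blue. IC50 values reported.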

[2] = tested on: Hedgehog pathway activation (GLi-luciferase reporter) in Shh Light II reporter cells; experiment: Hedgehog pathway activation on Shh Light II reporter cells measured by luciferase activity; format: cell-based
Procedure, shortened: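 Shh Light II reporter cells carrying a hedgehog-responsive GLi-luciferase reporter were stimulated either with 500 nM SAG, a direct Smoothened agonist, or with conditioned media containing human Sonic Hedgehog (hShh). Test compounds were evaluated for blocking this pathway activation, quantified by luciferase activity. Cell viability was monitored in parallel with the Celltiter-Blue® assay.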

[3] = Mus musculus, C3H 10T1/2, 10T1/2/Smo#3 cells, measured by ALP activity, read-out: ALP (IC50, inhibition of Hedgehog pathway activation)
[4] = Mus musculus, Shh Light II, hShh activation, read-out: Shh (IC50, inhibition of Hedgehog pathway activation)
[5] = Mus musculus, C3H 10T1/2, 10T1/2/Smo#3 cells, hShh activation, ALP activity, read-out: 10T1/2/Smo#3 ALP activity (hShh Activation)
[6] = Mus musculus, Shh Light II, SAG activation (500 nM SAG), read-out: Shh Light II luciferase activity (SAG activation)
[7] = Mus musculus, Shh Light II, hShh activation, read-out: Shh Light II luciferase activity (hShh activation)
[8] = 10T1/2/Smo#3 cells, measured by ALP activity, read-out: ALP (IC50, inhibition of Hedgehog pathway activation)
[9] = hShh activation, read-out: Shh (IC50, inhibition of Hedgehog pathway activation)

Row | Structure (SMILES) | IC50 [1, 3] [nM] | IC50 [2, 4] [nM] | IC50 [1, 5] [nM] | IC50 [2, 6] [nM] | IC50 [2, 7] [nM] | IC50 [1, 8] [nM] | IC50 [2, 9] [nM]
1 | CCOC(=O)CCCOc1ccc(-c2ccc3nc(-c4ccc(C)c(NC(=O)C(C)(C)C)c4)cn3n2)c(C(F)(F)F)n1 [Example 432, ethyl 4-(5-(2-(4-methyl-3-pivalamidophenyl)imidazo[1,2-b]pyridazin-6-yl)-6-(trifluoromethyl)pyridin-2-yloxy)butanoate] | 675 | 121 |  |  |  |  | 
2 | CCOC(=O)CCCCOc1ccc(C(F)(F)F)c(-c2ccc3nc(-c4ccc(C)c(NC(=O)C(C)(C)C)c4)cn3n2)c1 [Example 433, ethyl 5-(3-(2-(4-methyl-3-pivalamidophenyl)imidazo[1,2-b]pyridazin-6-yl)-4-(trifluoromethyl)phenoxy)pentanoate] | 736 | 193 |  |  |  |  | 
3 | Cc1ccc(-c2cn3nc(-c4cccc(OCCCCCC(=O)NO)c4C(F)(F)F)ccc3n2)cc1NC(=O)C(C)(C)C [Example 438, N-hydroxy-6-(3-(2-(4-methyl-3-pivalamidophenyl)imidazo[1,2-b]pyridazin-6-yl)-2-(trifluoromethyl)phenoxy)hexanamide] | 2600 | 1160 |  |  |  |  | 
4 | Cc1ccc(-c2cn3nc(-c4cccc(OCC(=O)NO)c4C(F)(F)F)ccc3n2)cc1NC(=O)C(C)(C)C [Example 439, N-(5-(6-(3-(2-(hydroxyamino)-2-oxoethoxy)-2-(trifluoromethyl)phenyl)imidazo[1,2-b]pyridazin-2-yl)-2-methylphenyl)pivalamide] | 746 | 365 |  |  |  |  | 
5 | Cc1ccc(-c2cn3nc(C4=CCC(C)(C)CC4)ccc3n2)cc1NC(=O)C(C)(C)C [Example 444, N-(5-(6-(4,4-dimethylcyclohex-1-enyl)imidazo[1,2-b]pyridazin-2-yl)-2-methylphenyl)pivalamide] | 604 | 1240 |  |  |  |  | 
6 | Cc1ccc(-c2cn3nc(-c4cscn4)ccc3n2)cc1NC(=O)C(C)(C)C [Example 445, N-(2-methyl-5-(6-(thiazol-4-yl)imidazo[1,2-b]pyridazin-2-yl)phenyl)pivalamide] | 578 | 794 |  |  |  |  | 
7 | Cc1ccc(-c2cn3nc(-c4csc(N5CCOCC5)n4)ccc3n2)cc1NC(=O)C(C)(C)C [Example 448, N-(2-methyl-5-(6-(2-morpholinothiazol-4-yl)imidazo[1,2-b]pyridazin-2-yl)phenyl)pivalamide] | 643 | 1280 |  |  |  |  | 
8 | Cc1ccc(-c2cn3nc(-c4cccc(S(=O)(=O)N(C)C)c4)ccc3n2)cc1NC(=O)C(C)(C)C [Example 451, N-(5-(6-(3-(N,N-dimethylsulfamoyl)phenyl)imidazo[1,2-b]pyridazin-2-yl)-2-methylphenyl)pivalamide] | 1000 | 960 |  |  |  |  | 
9 | CNC(=O)c1cccc(-c2ccc3nc(-c4ccc(C)c(NC(=O)C(C)(C)C)c4)cn3n2)c1 [Example 453, N-methyl-3-(2-(4-methyl-3-pivalamidophenyl)imidazo[1,2-b]pyridazin-6-yl)benzamide] | 751 | 582 |  |  |  |  | 
10 | C[C@@H]1CCCC[C@H]1Oc1ccc2nc(-c3ccc(C(F)(F)F)c(NC(=O)C(C)(C)C)c3)cn2n1 [Example 464, N-(5-(6-((1R,2R)-2-methylcyclohexyloxy)imidazo[1,2-b]pyridazin-2-yl)-2-(trifluoromethyl)phenyl)pivalamide] | 400 | 352 |  |  |  |  | 
11 | CC(C)(C)C(=O)Nc1cc(-c2cn3nc(N4CCC(O)C4)ccc3n2)ccc1C(F)(F)F (stereo not drawn) [Example 467, N-(5-(6-(3-hydroxypyrrolidin-1-yl)imidazo[1,2-b]pyridazin-2-yl)-2-(trifluoromethyl)phenyl)pivalamide] |  |  |  |  |  | 114 | 115
12 | CC(C)(C)C(=O)Nc1cc(-c2cn3nc(N4CCCC(O)C4)ccc3n2)ccc1C(F)(F)F (stereo not drawn) [Example 471, N-(5-(6-(3-hydroxypiperidin-1-yl)imidazo[1,2-b]pyridazin-2-yl)-2-(trifluoromethyl)phenyl)pivalamide] | 445 |  |  |  |  |  | 151
13 | CNC1CCN(c2ccc3nc(-c4ccc(C)c(NC(=O)C(C)(C)C)c4)cn3n2)C1 (stereo not drawn) [Example 473, N-(2-methyl-5-(6-(3-(methylamino)pyrrolidin-1-yl)imidazo[1,2-b]pyridazin-2-yl)phenyl)pivalamide] |  |  |  |  |  | 93 | 77
14 | CCOC(=O)COc1ccc(C(F)(F)F)c(-c2ccc3nc(-c4ccc(C)c(NC(=O)C(C)(C)C)c4)cn3n2)c1 [Example 477, ethyl 2-(3-(2-(4-methyl-3-pivalamidophenyl)imidazo[1,2-b]pyridazin-6-yl)-4-(trifluoromethyl)phenoxy)acetate] | 521 | 247 |  |  |  |  | 
15 | CCc1ccc(-c2cn3nc(-c4cccnc4C(F)(F)F)ccc3n2)cc1NC(=O)C1(C)CC1 [Example 633] |  |  | < 300 | < 300 | < 300 |  | 
16 | CCc1ccc(-c2cn3nc(-c4cccnc4C(F)(F)F)ccc3n2)cc1NC(=O)C1(C)CC1 [Example 636, N-(2-ethyl-5-(6-(2-(trifluoromethy)pyridin-3-y)imidazo[1,2-b]pyridazin-2-yl)phenyl)-1-methylcyclopropanecarboxamide] |  |  |  |  |  | 35 | 131

The remaining lines, values ahead:

Row | IC50 [1, 3] [nM] | IC50 [2, 4] [nM] | IC50 [1, 5] [nM] | IC50 [2, 6] [nM] | IC50 [2, 7] [nM] | IC50 [1, 8] [nM] | IC50 [2, 9] [nM] | Structure (SMILES)
17 | 150 | 71 | < 300 | < 300 | < 300 |  |  | Cc1ccc(-c2cn3nc(-c4ccc(C(=O)NO)cc4C(F)(F)F)ccc3n2)cc1NC(=O)C(C)(C)C [Example 437, N-hydroxy-4-(2-(4-methyl-3-pivalamidophenyl)imidazo[1,2-b]pyridazin-6-yl)-3-(trifluoromethyl)benzamide]
18 | 281 | 311 |  |  |  |  |  | Cc1ccc(-c2cn3nc(-c4ccc5nonc5c4)ccc3n2)cc1NC(=O)C(C)(C)C [Example 449, N-(5-(6-(benzo[c][1,2,5]oxadiazol-5-yl)imidazo[1,2-b]pyridazin-2-yl)-2-methylphenyl)pivalamide]
19 | 337 | 322 | < 300 | < 300 | < 300 |  |  | Cc1ccc(-c2cn3nc(-c4cc(C#N)ccc4C)ccc3n2)cc1NC(=O)C(C)(C)C [Example 450, N-(5-(6-(5-cyano-2-methylphenyl)imidazo[1,2-b]pyridazin-2-yl)-2-methylphenyl)pivalamide]
20 | 23 | 44 |  |  |  |  |  | Cc1ccc(-c2cn3nc(N4CCC(O)C4)ccc3n2)cc1NC(=O)C(C)(C)C (stereo not drawn) [Example 468, N-(5-(6-(3-hydroxypyrrolidin-1-yl)imidazo[1,2-b]pyridazin-2-yl)-2-methylphenyl)pivalamide]
21 | 28 | 65 |  |  |  |  |  | CN(C)[C@@H]1CCN(c2ccc3nc(-c4ccc(C(F)(F)F)c(NC(=O)C(C)(C)C)c4)cn3n2)C1 [Example 470, (R)-N-(5-(6-(3-(dimethylamino)pyrrolidin-1-yl)imidazo[1,2-b]pyridazin-2-yl)-2-(trifluoromethyl)phenyl)pivalamide]
22 | 110 | 84 |  |  |  |  |  | Cc1ccc(-c2cn3nc(N4CC[C@@H](N(C)C)C4)ccc3n2)cc1NC(=O)C(C)(C)C [Example 472, (R)-N-(5-(6-(3-(dimethylamino)pyrrolidin-1-yl)imidazo[1,2-b]pyridazin-2-yl)-2-methylphenyl)pivalamide]
23 | 34 | 31 |  |  |  |  |  | CCNC1CCN(c2ccc3nc(-c4ccc(C)c(NC(=O)C(C)(C)C)c4)cn3n2)C1 (stereo not drawn) [Example 474, N-(5-(6-(3-(ethylamino)pyrrolidin-1-yl)imidazo[1,2-b]pyridazin-2-yl)-2-methylphenyl)pivalamide]
24 | 327 | 80 |  |  |  |  |  | Cc1ccc(-c2cn3nc(-c4ccc(C#N)cc4C(F)(F)F)ccc3n2)cc1NC(=O)C(C)(C)C [Example 478, N-(5-(6-(4-cyano-2-(trifluoromethyl)phenyl)imidazo[1,2-b]pyridazin-2-yl)-2-methylphenyl)pivalamide]
25 | 86 | 6 | < 300 | < 300 | < 300 |  |  | Cc1ccc(-c2cn3nc(-c4ccc(C(=O)O)cc4C(F)(F)F)ccc3n2)cc1NC(=O)C(C)(C)C [Example 479, 4-(2-(4-methyl-3-pivalamidophenyl)imidazo[1,2-b]pyridazin-6-yl)-3-(trifluoromethyl)benzoic acid]
26 | 114 | 72 | < 300 | 300 to 3000 | < 300 |  |  | Cc1ccc(-c2cn3nc(-c4cccnc4C(F)(F)F)ccc3n2)cc1C(=O)NC(C)(C)C [Example 483, N-tert-butyl-2-methyl-5-(6-(2-(trifluoromethyl)pyridin-3-yl)imidazo[1,2-b]pyridazin-2-yl)benzamide]
27 | 98 | 120 |  |  |  |  |  | CN[C@@H]1CCN(c2ccc3nc(-c4ccc(C(F)(F)F)c(NC(=O)C(C)(C)C)c4)cn3n2)C1 [Example 634, (R)—N-(5-(6-(3-(methylamino)pyrrolidin-1-yl)imidazo[1,2-b]pyridazin-2-yl)-2-(trifluoromethyl)phenyl)pivalamide]
28 | 159 | 110 |  |  |  |  |  | CCN[C@@H]1CCN(c2ccc3nc(-c4ccc(C(F)(F)F)c(NC(=O)C(C)(C)C)c4)cn3n2)C1 [Example 635, (R)—N-(5-(6-(3-(ethylamino)pyrrolidin-1-yl)imidazo[1,2-b]pyridazin-2-yl)-2-(trifluoromethyl)phenyl)pivalamide]
